Our source for the IC50 values is patent publication EP0991637B1, “BENZO(5,6)CYCLOHEPTA(1,2-B)PYRIDINE DERIVATIVES AS FARNESYL PROTEIN TRANSFERASE INHIBITORS” (SCHERING CORPORATION, priority 1997, dated 1998).

The subject of one experiment is COS Cell. As to the kind of experiment: COS Cell IC50 (Cell-Based Assay), procedure of WO 95/10516. Conditions: range stated for the whole group of compounds. How it is done: FPT IC50 (inhibition of farnesyl protein transferase, in vitro enzyme assay) and COS Cell IC50 (Cell-Based Assay) were determined following the assay procedures described in WO 95/10516, published April 20, 1995. GGPT IC50 (inhibition of geranylgeranyl protein transferase, in vitro enzyme assay), Cell Mat Assay, and anti-tumor activity (in vivo anti-tumor studies) could be determined by the assay procedures described in WO 95/10516. The disclosure of WO 95/10516 is incorporated herein by reference thereto.

For a further experiment, the system named is Human tumor cells. Put plainly: Soft Agar Assay (anchorage-independent growth, colony outgrowth, MTT staining). It is filed as cell-based. Conditions: 0.3% agarose over 0.6% agarose, 10-16 days at 37°C under 5% CO2. As for the experimental part: Anchorage-independent growth is a characteristic of tumorigenic cell lines. Human tumor cells are suspended in growth medium containing 0.3% agarose and an indicated concentration of a farnesyl transferase inhibitor. The solution is overlayed onto growth medium solidified with 0.6% agarose containing the same concentration of farnesyl transferase inhibitor as the top layer. After the top layer is solidified, plates are incubated for 10-16 days at 37°C under 5% CO2 to allow colony outgrowth. After incubation, the colonies are stained by overlaying the agar with a solution of MTT (3-[4,5-dimethyl-thiazol-2-yl]-2,5-diphenyltetrazolium bromide, Thiazolyl blue) (1 mg/mL in PBS). Colonies can be counted and the IC50's can be determined.

Turning to `NC(=O)C1CCC(CC(=O)N2CCC([C@H]3c4ncc(Br)cc4CCc4cc(Cl)cc(Br)c43)CC2)CC1` (stereo partly shown) [Example 23], in the experiment with COS Cell, the IC50 (in general, the concentration that inhibits the measured activity by half) was 10 to 500 nM.

For `NC(=O)Cc1cccc(CC(=O)N2CCC([C@H]3c4ncc(Br)cc4CCc4cc(Cl)cc(Br)c43)CC2)c1` [Example 16], the IC50 with COS Cell fell in the range of 10 to 500 nM.

As to `O=C(O)Cc1ccc(CC(=O)N2CCC([C@H]3c4ncc(Br)cc4CCc4cc(Cl)cc(Br)c43)CC2)cc1` [Example 3], the IC50 in the experiment with COS Cell is 10 to 500 nM.

In the case of `O=C(O)C=C1CCC(=CC(=O)N2CCC([C@H]3c4ncc(Br)cc4CCc4cc(Cl)cc(Br)c43)CC2)CC1` [Example 14], the IC50 in the experiment on COS Cell is 10 to 500 nM; in the experiment with Human tumor cells it was more than 500 nM.

Take `CCOC(=O)C1CCC(CC(=O)N2CCC([C@H]3c4ncc(Br)cc4CCc4cc(Cl)cc(Br)c43)CC2)CC1` (stereo partly shown) [Example 8]: the figures for the IC50 with COS Cell and in the experiment on Human tumor cells were 10 to 500 nM and more than 500 nM, respectively.

In the experiment on COS Cell, `O=C(O)CC1CCC(CC(=O)N2CCC([C@H]3c4ncc(Br)cc4CCc4cc(Cl)cc(Br)c43)CC2)CC1` (stereo partly shown) [Example 13] yielded a 50% inhibitory concentration (IC50) of 10 to 500 nM.

`NC(=O)CC1CCC(CC(=O)N2CCC([C@H]3c4ncc(Br)cc4CCc4cc(Cl)cc(Br)c43)CC2)CC1` (stereo partly shown) [Example 22] registered an IC50 in the experiment on COS Cell of 10 to 500 nM.

In the experiment on COS Cell, `NC(=O)Cc1ccc(CC(=O)N2CCC([C@H]3c4ncc(Br)cc4CCc4cc(Cl)cc(Br)c43)CC2)cc1` [Example 15] came in with an IC50 of 10 to 500 nM.

The compound `O=C(O)C[C@H]1CC[C@@H](C(=O)N2CCC([C@H]3c4ncc(Br)cc4CCc4cc(Cl)cc(Br)c43)CC2)CC1` [Example 35] had an IC50 with COS Cell of 10 to 500 nM.

On to `COC(=O)Cc1ccc(CC(=O)N2CCC([C@H]3c4ncc(Br)cc4CCc4cc(Cl)cc(Br)c43)CC2)cc1` [Example 34], for which, in the experiment on COS Cell, the IC50 is 10 to 500 nM.

In the experiment with COS Cell, `O=C(O)C1CCC(CC(=O)N2CCC([C@H]3c4ncc(Br)cc4CCc4cc(Cl)cc(Br)c43)CC2)CC1` (stereo partly shown) [Example 12] came in with an IC50 of 10 to 500 nM.

In the experiment with COS Cell, `NC(=O)[C@H]1C[C@@H]1C(=O)N1CCC([C@H]2c3ncc(Br)cc3CCc3cc(Cl)cc(Br)c32)CC1` [Compound 55.0, Trans-2(S)-[[4-(3,10-dibromo-8-chloro-6,11-dihydro-5H-benzo[5,6]cyclohepta[1,2-b]pyridin-11(R)-yl)-1-piperidinyl]carbonyl]-(S)-cyclopropanecarboxamide] showed an IC50 of 10 to 500 nM.

With `O=C(O)Cc1cccc(CC(=O)N2CCC([C@H]3c4ncc(Br)cc4CCc4cc(Cl)cc(Br)c43)CC2)c1` [Example 4], the IC50 with COS Cell lay in the range of 10 to 500 nM.

For the compound `O=C(O)C[C@H]1CC[C@H](C(=O)N2CCC([C@H]3c4ncc(Br)cc4CCc4cc(Cl)cc(Br)c43)CC2)CC1` [Example 36], in the experiment on COS Cell, the IC50 lay in the range of 10 to 500 nM.

Regarding `COC(=O)CNC(=O)Cc1ccc(CC(=O)N2CCC([C@H]3c4ncc(Br)cc4CCc4cc(Cl)cc(Br)c43)CC2)cc1` [Example 18], the IC50 in the experiment on COS Cell lay in the range of 10 to 500 nM.

For the compound `COC(=O)CNC(=O)Cc1cccc(CC(=O)N2CCC([C@H]3c4ncc(Br)cc4CCc4cc(Cl)cc(Br)c43)CC2)c1` [Example 17], in the experiment with COS Cell, the IC50 fell in the range of 10 to 500 nM.

Compound `CONC(=O)Cc1ccc(CC(=O)N2CCC([C@H]3c4ncc(Br)cc4CCc4cc(Cl)cc(Br)c43)CC2)cc1` [Example 19] yielded an IC50 in the experiment with COS Cell of 10 to 500 nM.
